Experimental data: article PMC8018242, “AbhemC encoding porphobilinogen deaminase plays an important role in chlorophyll biosynthesis and function in albino Ananas comosus var. bracteatus leaves” (PeerJ, 2021)

Target: T1, AbHEMC (porphobilinogen deaminase, PBGD) (Ananas comosus, UniProt A0A1B2LUE6)
T1 construct: gene hemC; E. coli Rosetta-gami (DE3); about 45 kD on SDS-PAGE
Test: in vitro PBGD activity assay (method of Lee et al. […])
Type: biochemical
Details: recombinant fusion protein; substrate inferred from the named PBGD activity, assay conditions not given

T1 sequence (A0A1B2LUE6 entry or part of it): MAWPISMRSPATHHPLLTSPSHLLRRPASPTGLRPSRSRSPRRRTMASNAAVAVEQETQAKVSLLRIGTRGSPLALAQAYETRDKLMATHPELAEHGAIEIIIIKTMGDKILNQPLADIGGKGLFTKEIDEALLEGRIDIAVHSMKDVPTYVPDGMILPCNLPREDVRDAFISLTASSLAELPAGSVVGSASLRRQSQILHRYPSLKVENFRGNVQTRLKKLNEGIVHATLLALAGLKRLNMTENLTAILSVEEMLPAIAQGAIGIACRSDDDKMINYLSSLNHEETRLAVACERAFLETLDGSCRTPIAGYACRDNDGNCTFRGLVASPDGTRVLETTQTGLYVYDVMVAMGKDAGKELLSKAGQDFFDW

NCc1[nH]cc(CCC(=O)O)c1CC(=O)O [porphobilinogen]
in vitro PBGD activity assay (method of Lee et al. 1992): in vitro analysis showed that the prokaryotic-expressed AbHEMC protein had PBGD activity
